The values below come from ChEMBL document CHEMBL4007391, “Tackling Fungal Resistance by Biofilm Inhibitors” (J Med Chem, 2017).

Series [1] in a line: Toxicity in mouse. The format is organism-based. The conditions noted are these: in vivo.
In series [2] the test system is Candida albicans. The experiment in a line: Inhibition of filament formation of tet-NRG1 expressing Candida albicans after 2 to 24 hrs. The series is classed as functional.
A short description of series [3]: Cytotoxicity against human HepG2 assessed as reduction in cell viability after 24 hrs by CellTiter-Glo luminescent assay. The series is classed as cell-based. The conditions noted are these: HepG2 cells. On the technique in general: Cellular ATP, detected with luciferase, serves as a proxy for viable cell number.
Series [4] has as its system Candida albicans. The experiment in a line: Antifungal activity against Candida albicans DAY185 by CLSI method. The format is functional.
The subject of series [5] is Candida albicans. The series is described as follows: Antibiofilm activity against Candida albicans DAY185 after 24 hrs by XTT assay. The series is classed as functional. (In general: Formazan colour is commonly taken as a measure of viable cells.)
Series [6] relates to Candida. The experiment in a line: Antifungal activity against Candida after 48 hrs by broth microdilution assay. The format is functional.
For series [7], the system named is Candida. The experiment in a line: Antifungal activity against drug-resistant Candida spp. clinical isolates after 48 hrs by broth microdilution assay. The format is functional. (In general: Dilution methods test growth across graded concentrations, often in twofold steps.)
Series [8] concerns Candida albicans. The experiment in a line: Disruption of biofilm of Candida albicans DAY185 assessed as death of biofilm hyphae after 24 hrs by XTT assay. The format is functional.
Series [9] has as its system Candida albicans. The experiment in a line: Inhibition of biofilm formation of Candida albicans ATCC 90028 after 48 hrs in presence of fluconazole by XTT assay. The series is classed as functional.
Series [10] relates to Candida albicans. The series is described as follows: Disruption of biofilm of Candida albicans ATCC 90028 after 48 hrs in presence of fluconazole by XTT assay. The series is classed as functional.
For series [11], the system named is Candida albicans. The series is described as follows: Disruption of biofilm of Candida albicans ATCC 90028 after 48 hrs in presence of voriconazole by XTT assay. The series is classed as functional.
Series [12] deals with Candida albicans. The experiment in a line: Inhibition of biofilm formation of Candida albicans ATCC 90028 after 48 hrs in presence of voriconazole by XTT assay. The format is functional.
Series [13] concerns Candida albicans. The series is described as follows: Antifungal activity against fluconazole-susceptible Candida albicans by broth microdilution assay. The series is classed as functional.
The test system of series [14] is Candida albicans. The series is described as follows: Antifungal activity against fluconazole-resistant Candida albicans by broth microdilution assay. The format is functional.
A further series deals with Cryptococcus neoformans. The experiment in a line: Antifungal activity against Cryptococcus neoformans KCTC 7224 clinical isolates after 7 days by two fold serial dilution method. Particulars: KCTC 7224, 168 h. The series is classed as functional.
Series [15] deals with Trichophyton mentagrophytes. The series is described as follows: Antifungal activity against Trichophyton mentagrophytes KCTC 6077 clinical isolates after 7 days by two fold serial dilution method. The series is classed as functional. Particulars: KCTC 6077, 168 h.
For series [16], the system named is Candida albicans. The experiment in a line: Antifungal activity against Candida albicans KCTC 1940 clinical isolates after 7 days by two fold serial dilution method. The conditions noted are these: KCTC 1940, 168 h. The series is classed as functional.
Series [17] has as its system Candida albicans. The series is described as follows: Inhibition of biofilm formation of fluconazole-resistant Candida albicans at 2 to 4 ug/ml after 24 hrs by XTT assay. The format is functional.
The test system of series [18] is Candida albicans. The series is described as follows: Antifungal activity against fluconazole-resistant Candida albicans after 48 hrs by broth microdilution assay. The series is classed as functional.
For series [19], the system named is Candida albicans. The experiment in a line: Disruption of biofilm of fluconazole-resistant Candida albicans at 8 to 32 ug/ml after 24 hrs by XTT assay. The format is functional.
Series [20] relates to Candida albicans. The series is described as follows: Antifungal activity against Candida albicans by broth dilution assay. The format is functional.

Converted amounts (≈) assume the structure as drawn.

For orientation: LD50 means the dose at which mortality reaches 50%. The low end stands for a more toxic substance, the high end for a less toxic substance. For `NC1C2CC3CC(C2)CC1C3` (stereo unspecified), the LD50 in [1] stood at 250 mg/kg.
Usually IC50 stands for the concentration at which inhibition is half-maximal. Low readings indicate greater potency in that assay, high ones weaker potency in that assay. In general, CC50 refers to the concentration that lowers cell viability or growth by half. `CCN(CC)CCN1c2ccccc2Sc2ccc3ccccc3c21` returned an IC50 with Candida albicans [2] of 3.8 µM. The cytotoxic concentration (CC50) at 24 h in series [3] came to 50.8 µM.
The MIC is the lowest concentration found to suppress growth. Higher therefore signals a less susceptible organism. As for `CCCCCCCCCC(=O)C1C(=O)N[C@@H](CC(C)C)C(=O)N[C@H](C)C(=O)N2CCC[C@H]2C(=O)N[C@@H](C(C)C)C(=O)N[C@@H](CC)C(=O)NCC1O` (stereo partly specified), in the series with Candida albicans [4], the MIC is over 200 µM. Also, the midpoint of inhibition in the series on Candida albicans [5], the IC50, lay at 5.3 µM.
`CN(C)c1ccc(/C=C/c2cc(C(C)(C)C)[o+]c(C(C)(C)C)c2)cc1.[O-][Cl+3]([O-])([O-])[O-]`: the values for the MIC against Candida [6] and in the series with Candida [7] were 0.2 to 6.25 µg/mL and 0.5 to 1 µg/mL, respectively.
Usually EC50 stands for the concentration giving half of the maximal effect. In the case of `C=C(C)[C@H](CC=C(C)C)C[C@]12C[C@H](CC=C(C)C)C(C)(C)[C@](CC=C(C)C)(C(=O)C(C(=O)c3ccc(O)c(O)c3)=C1O)C2=O`, in the series on Candida albicans [8], the EC50 is 30 to 50 µM.
As to `CCN(CC)CCCC(C)Nc1ccnc2cc(Cl)ccc12` (stereo unspecified) [CHLOROQUINE], the “fractional inhibitory concentration index (FICI)” value in the series on Candida albicans [9], with Candida albicans [10], in the series on Candida albicans [11] and in the series on Candida albicans [12] was 0.156 - 0.25 in each case.
The term MIC80 denotes an inhibitory concentration at the 80% level, which refers to growth in some studies and to a panel of isolates in others. As for `COc1ccc2cc1Oc1ccc(cc1)C[C@H]1c3cc(c(OC)cc3CCN1C)Oc1c(OC)c(OC)cc3c1[C@H](C2)N(C)CC3` [FANCHININ], the MIC80 against Candida albicans [13] and against Candida albicans [14] was 64 µg/mL (≈ 103 µM) each time.
As to `C=CCc1ccc(O)c(-c2ccc(O)c(CC=C)c2)c1` [HONOKIOL], the MIC in the series on Cryptococcus neoformans is 25 µg/mL (≈ 93.9 µM); in [15], 25 µg/mL (≈ 93.9 µM); in the series with Candida albicans [16], 16 to 32 µg/mL (≈ 60.1 to 120 µM).
On to `C=CCc1ccc(O)c(-c2cc(CC=C)ccc2O)c1` [MAGNOLOL], for which the results for the minimum inhibitory concentration (MIC) (against Cryptococcus neoformans; in series [15]; with Candida albicans [16]) were 25 µg/mL (≈ 93.9 µM), 25 µg/mL (≈ 93.9 µM) and 16 to 32 µg/mL (≈ 60.1 to 120 µM), respectively.
Regarding `CCCCCCCCCCCCCCCCOP(=O)([O-])OCC[N+](C)(C)C` [MILTEFOSINE], the “inhibition (INH)” value was 90% with Candida albicans [17] and over 90% in the series on Candida albicans [19]. In the series with Candida albicans [18], this compound had an MIC of 0.5 to 2 µg/mL (≈ 1.23 to 4.91 µM).
Consider `COc1cc(/C=C/c2ccc(O)cc2)cc(OC)c1` [PTEROSTILBENE], for which, in the series with Candida albicans [20], the MIC80 was 32 µg/mL (≈ 125 µM).
In the series with Candida albicans [2], `CO[C@H]1C[C@@H]2CC[C@@H](C)[C@@](O)(O2)C(=O)C(=O)N2CCCC[C@H]2C(=O)O[C@H]([C@H](C)C[C@@H]2CC[C@@H](O)[C@H](OC)C2)CC(=O)[C@H](C)/C=C(\C)[C@@H](O)[C@@H](OC)C(=O)[C@H](C)C[C@H](C)/C=C/C=C/C=C/1C` [SIROLIMUS] returned an IC50 of 0.514 µM. The CC50 at 24 h in series [3] came out at 67.2 µM.
